On the set-up of data set [1]: method as in PMID 30630940. The note with it: humans, at 30 min, microdose; cited from earlier work.
For data set [2] the following is noted: rodents, at 30 min, microdose; cited from earlier work.
The target in data set [3] is T1, P-glycoprotein (P-gp) function at the blood-brain barrier (BBB) (Rattus norvegicus, UniProt Q6PSM0).
T1 construct: Kinetic modeling was performed to estimate the impact of these drugs on P-gp function at the BBB; from tissue; host or cells: blood-brain barrier (brain) of living Sprague Dawley rats, in vivo PET
In words: [^11C]metoclopramide brain PET imaging with kinetic modelling (Logan plot) in rats. The class given is in vivo. As to conditions: oral pretreatment of healthy Sprague Dawley rats (CBZ 45 mg/kg twice a day for 7 days; RIT 20 mg/kg 3 h before PET).
Description: In animals of the CBZ group (n = 4), CBZ suspension was administered by oral gavage at a dose of 45 mg/kg, twice a day (8 A.M and 5 P.M) for 7 days before the PET imaging. Each animal received a total of 14 doses of CBZ before the PET experiment.
A RIT suspension (10 mg/mL) was freshly prepared prior to oral administration by adding 100 mg of RIT powder to 9.4 mL of water for injection. Animals of the RIT group (n = 4) received a single dose of 20 mg/kg of RIT 3 hours before the PET experiment.
PET acquisitions were performed in Baseline, CBZ and RIT pretreated animals (n = 4 per condition) using an Inveon microPET scanner (Siemens, Knoxville, TN, USA). Anesthesia was induced and thereafter maintained using 3.5% and 1.5–2.5% isoflurane in O2, respectively.
Images were reconstructed with the Fourier rebinning algorithm and the 3-dimensional ordered-subset expectation-maximization algorithm, including normalization, attenuation, scatter, and random corrections. […] Radioactivity was corrected for ^11C decay and expressed as standardized uptake value (SUV, unitless) after correction for injected dose and animal weight. […]
Kinetic modeling was also performed using PMOD software. […] Each individual IDIF was corrected by a group-specific, average whole-blood/plasma radioactivity ratio which was obtained from the arterial blood samples collected in the separate groups of animals (see above).

The test system of data set [4] is P-gp. As to conditions: cited from earlier work.

Molecules are shown by their SMILES. Like-named read-outs stand apart in the source and are kept apart here.

T1 sequence (Q6PSM0 1-1272): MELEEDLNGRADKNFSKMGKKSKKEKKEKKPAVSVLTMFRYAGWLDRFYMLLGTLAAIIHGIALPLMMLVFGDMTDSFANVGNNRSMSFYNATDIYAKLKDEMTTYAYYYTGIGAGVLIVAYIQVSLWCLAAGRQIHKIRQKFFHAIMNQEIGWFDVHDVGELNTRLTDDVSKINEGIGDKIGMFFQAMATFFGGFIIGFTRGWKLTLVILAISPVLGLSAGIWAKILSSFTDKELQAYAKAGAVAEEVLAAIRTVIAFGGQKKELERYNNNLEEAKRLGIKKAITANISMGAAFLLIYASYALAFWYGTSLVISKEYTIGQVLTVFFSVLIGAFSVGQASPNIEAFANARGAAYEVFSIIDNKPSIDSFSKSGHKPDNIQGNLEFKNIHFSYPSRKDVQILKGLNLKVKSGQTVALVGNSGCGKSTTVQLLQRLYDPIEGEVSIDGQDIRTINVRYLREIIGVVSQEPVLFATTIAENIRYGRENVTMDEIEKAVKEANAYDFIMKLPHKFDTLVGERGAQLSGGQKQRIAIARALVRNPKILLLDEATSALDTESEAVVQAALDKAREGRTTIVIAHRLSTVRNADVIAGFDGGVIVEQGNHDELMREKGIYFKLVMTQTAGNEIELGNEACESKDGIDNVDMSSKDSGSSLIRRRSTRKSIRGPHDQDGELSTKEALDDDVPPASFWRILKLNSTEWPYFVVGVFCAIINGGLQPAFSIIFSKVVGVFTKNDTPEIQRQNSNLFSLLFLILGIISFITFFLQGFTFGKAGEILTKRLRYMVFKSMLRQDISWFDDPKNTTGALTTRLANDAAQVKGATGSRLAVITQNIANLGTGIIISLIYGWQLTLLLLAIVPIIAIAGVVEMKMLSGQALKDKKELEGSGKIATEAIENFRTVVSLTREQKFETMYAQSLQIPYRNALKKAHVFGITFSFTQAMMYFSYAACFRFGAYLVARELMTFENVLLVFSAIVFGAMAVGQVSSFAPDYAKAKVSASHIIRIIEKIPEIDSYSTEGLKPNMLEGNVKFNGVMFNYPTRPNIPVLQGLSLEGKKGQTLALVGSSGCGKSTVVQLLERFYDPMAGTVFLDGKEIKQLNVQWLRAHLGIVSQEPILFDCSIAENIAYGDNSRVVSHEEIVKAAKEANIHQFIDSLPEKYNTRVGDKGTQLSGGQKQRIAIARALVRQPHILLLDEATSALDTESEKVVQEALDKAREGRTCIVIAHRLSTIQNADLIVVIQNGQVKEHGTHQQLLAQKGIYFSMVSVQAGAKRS

For the compound `CCN(CC)CCNC(=O)c1cc(Cl)c(N)cc1O[11CH3]` [[^11C]metoclopramide], the “Fraction of parent [^11C]metoclopramide” value in data set [1] was ~ 60%; in data set [2], ~ 10%.
In the case of `CC(C)c1nc(CN(C)C(=O)N[C@H](C(=O)N[C@@H](Cc2ccccc2)C[C@H](O)[C@H](Cc2ccccc2)NC(=O)OCc2cncs2)C(C)C)cs1` [RIT, ritonavir], the “Effect on P-gp function at the BBB (from [^11C]metoclopramide PET)” value in data set [3] is “apparently behaving as an inhibitor”. Also, in data set [4], the “P-gp inhibition in vitro” value is reported as “potent P-gp inhibitor”.
As to `NC(=O)N1c2ccccc2C=Cc2ccccc21` [CBZ, carbamazepine], the “Effect on P-gp function at the BBB (from [^11C]metoclopramide PET)” value in data set [3] is on record as “does not substantially induce or inhibit”.

The values are drawn from PMC9785688 (Pharmaceutics, 2022).
